Columns and labels:
[1] = target: T1, human wild-type P-gp (ABCB1 1236C-2677G-3435C) (Homo sapiens, UniProt P08183, S893A); experiment: in vitro
Protocol: (§1) For efflux assays, 1×10^5 cells were seeded on 96-well plates and cultured for 24 hours. […] After washed with warm PBS, cells were allowed to efflux rhodamine123 for 10 min at 37°C in the incubator. Samples (150 µl) were collected and transferred to 96-well black plates. Rhodamine123 concentrations were measured using a set of standards (from 62.5 nM to 8 µM) in HBSS analyzed by the SpectraMax Gemini XS microplate spectrofluorometer (Molecular Devices Co., Sunnyvale, CA, USA) with the excitation set at 485 nm and the emission set at 535 nm. The measured rhodamine123 concentrations were normalized to the total protein content in the cells. Total protein concentrations were measured by a microplate assay protocol (Dc protein assay reagent, Bio-Rad, Hercules, CA, USA), and bovine serum albumin was used as the standard. Each experiment was repeated at least three times across cell passages to ensure stability of transfection and consistency and reproducibility of the experiments.
(§2) For kinetic studies, kinetic parameters were estimated by nonlinear regression using Scientist v2.01 (MicroMath Scientific Software, Salt Lake City, UT, U.S.A.) according to the following equation: [drawing 6] Where V denoted the efflux rate; Vmax, the maximal efflux rate; Km, the Michaelis-Menten constant and C is the substrate concentration.

[2] = target: T2, human P-gp with 1236T-2677A-3435T genotype (Homo sapiens, UniProt P08183, S893T)
Protocol: as §1, §2

[3] = target: T2, human P-gp with 1236T-2677A-3435T genotype; experiment: in vitro
Protocol: as §1, §2

[4] = target: T3, human P-gp with 1236T-2677T-3435T genotype (Homo sapiens, UniProt P08183)
Protocol: as §1, §2

[5] = target: T1, human wild-type P-gp (ABCB1 1236C-2677G-3435C)
Protocol: as §1, §2

[6] = target: T3, human P-gp with 1236T-2677T-3435T genotype; experiment: in vitro
Protocol: as §1, §2

[7] = target: T3, human P-gp with 1236T-2677T-3435T genotype; experiment: cell-based
Protocol: as §1, §2

[8] = target: T2, human P-gp with 1236T-2677A-3435T genotype; experiment: cell-based
Protocol: as §1, §2

[9] = target: T1, human wild-type P-gp (ABCB1 1236C-2677G-3435C); experiment: cell-based
Protocol: as §1, §2

[10] = test system: Flp-In™-293 cells; experiment: Cytotoxicity assay (MTT); assay type: cell-based, human; settings: methadone 0.5 to 40 µM; 48 hours
Protocol: Briefly, the cells were seeded into 24-well plates and cultured overnight. […] After incubation, the medium was removed and added fresh culture medium 200 µl containing 0.5 mg/ml MTT and then incubated at 37°C for 4 hours. After incubation, the medium was removed and 200 µl DMSO was added, and incubation for 30 minutes at room temperature. After incubation, 100 µl of solution was transferred to a 96-well plate and absorbance was measured using an ELISA plate reader (Molecular Devices, Sunnyvale, USA) at 570 nm with a reference wavelength of 650 nm.

[11] = cited from earlier work

T3 sequence (P08183 whole entry): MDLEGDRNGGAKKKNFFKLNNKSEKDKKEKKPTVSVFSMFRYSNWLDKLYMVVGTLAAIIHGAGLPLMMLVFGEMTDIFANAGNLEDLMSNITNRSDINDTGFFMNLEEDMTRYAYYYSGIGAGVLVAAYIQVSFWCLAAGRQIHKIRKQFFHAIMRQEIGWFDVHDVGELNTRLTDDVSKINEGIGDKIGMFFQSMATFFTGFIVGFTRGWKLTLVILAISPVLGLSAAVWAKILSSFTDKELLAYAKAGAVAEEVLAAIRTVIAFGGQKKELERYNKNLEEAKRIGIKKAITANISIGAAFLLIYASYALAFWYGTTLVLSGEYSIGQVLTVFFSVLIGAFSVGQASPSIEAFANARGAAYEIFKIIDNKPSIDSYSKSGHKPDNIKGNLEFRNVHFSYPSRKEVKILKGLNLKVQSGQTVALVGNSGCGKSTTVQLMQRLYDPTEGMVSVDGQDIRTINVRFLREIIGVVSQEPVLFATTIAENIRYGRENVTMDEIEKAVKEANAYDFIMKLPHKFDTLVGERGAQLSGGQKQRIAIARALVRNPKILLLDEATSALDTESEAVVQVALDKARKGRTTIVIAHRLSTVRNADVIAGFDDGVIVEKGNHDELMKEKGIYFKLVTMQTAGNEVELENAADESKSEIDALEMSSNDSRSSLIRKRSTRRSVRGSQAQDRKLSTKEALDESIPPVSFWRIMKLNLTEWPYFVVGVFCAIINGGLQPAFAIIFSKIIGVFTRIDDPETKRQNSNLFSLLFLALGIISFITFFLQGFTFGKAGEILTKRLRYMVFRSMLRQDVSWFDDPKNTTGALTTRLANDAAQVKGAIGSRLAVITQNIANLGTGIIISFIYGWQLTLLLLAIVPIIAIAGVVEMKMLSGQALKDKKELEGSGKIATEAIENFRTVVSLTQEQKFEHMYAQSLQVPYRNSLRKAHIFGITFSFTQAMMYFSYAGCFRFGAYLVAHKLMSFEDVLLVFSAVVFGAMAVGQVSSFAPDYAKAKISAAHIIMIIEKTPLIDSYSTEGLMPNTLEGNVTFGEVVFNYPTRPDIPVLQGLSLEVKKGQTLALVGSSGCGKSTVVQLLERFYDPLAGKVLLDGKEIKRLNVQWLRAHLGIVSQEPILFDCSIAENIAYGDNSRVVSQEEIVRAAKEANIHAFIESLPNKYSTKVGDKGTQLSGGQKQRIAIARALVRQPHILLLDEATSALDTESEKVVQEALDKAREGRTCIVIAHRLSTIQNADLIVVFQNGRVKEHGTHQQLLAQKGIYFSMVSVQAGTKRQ
T1 sequence (P08183 whole entry S893A): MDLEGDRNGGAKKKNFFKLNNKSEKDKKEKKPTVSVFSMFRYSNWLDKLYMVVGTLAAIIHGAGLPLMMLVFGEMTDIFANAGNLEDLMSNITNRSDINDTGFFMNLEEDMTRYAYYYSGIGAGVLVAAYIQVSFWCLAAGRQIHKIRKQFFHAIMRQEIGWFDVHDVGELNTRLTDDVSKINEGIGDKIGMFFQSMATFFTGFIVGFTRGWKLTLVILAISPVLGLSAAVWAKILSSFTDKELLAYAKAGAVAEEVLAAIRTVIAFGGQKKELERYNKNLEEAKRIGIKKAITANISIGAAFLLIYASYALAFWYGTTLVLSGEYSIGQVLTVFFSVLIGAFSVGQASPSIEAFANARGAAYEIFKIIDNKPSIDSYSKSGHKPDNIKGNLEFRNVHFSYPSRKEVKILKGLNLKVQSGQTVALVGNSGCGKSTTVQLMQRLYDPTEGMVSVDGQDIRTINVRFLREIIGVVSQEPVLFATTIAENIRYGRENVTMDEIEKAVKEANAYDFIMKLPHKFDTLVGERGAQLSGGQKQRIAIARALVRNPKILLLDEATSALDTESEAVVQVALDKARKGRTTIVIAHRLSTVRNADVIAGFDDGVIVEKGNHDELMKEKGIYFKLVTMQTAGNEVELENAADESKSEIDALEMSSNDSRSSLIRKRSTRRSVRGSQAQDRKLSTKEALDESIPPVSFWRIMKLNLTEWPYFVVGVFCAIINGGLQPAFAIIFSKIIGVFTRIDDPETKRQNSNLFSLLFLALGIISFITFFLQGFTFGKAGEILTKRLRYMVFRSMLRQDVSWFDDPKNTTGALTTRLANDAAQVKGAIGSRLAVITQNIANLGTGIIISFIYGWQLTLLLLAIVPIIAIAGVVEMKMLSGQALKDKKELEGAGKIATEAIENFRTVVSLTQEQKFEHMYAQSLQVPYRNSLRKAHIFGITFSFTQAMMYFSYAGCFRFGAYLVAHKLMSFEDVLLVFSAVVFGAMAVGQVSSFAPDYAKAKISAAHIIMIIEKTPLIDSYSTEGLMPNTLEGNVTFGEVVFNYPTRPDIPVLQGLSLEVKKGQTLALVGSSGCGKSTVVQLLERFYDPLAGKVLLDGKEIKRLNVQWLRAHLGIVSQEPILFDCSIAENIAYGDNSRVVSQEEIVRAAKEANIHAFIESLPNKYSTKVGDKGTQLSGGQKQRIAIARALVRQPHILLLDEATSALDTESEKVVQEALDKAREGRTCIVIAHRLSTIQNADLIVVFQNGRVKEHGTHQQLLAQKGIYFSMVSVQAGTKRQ
T2 sequence (P08183 whole entry S893T): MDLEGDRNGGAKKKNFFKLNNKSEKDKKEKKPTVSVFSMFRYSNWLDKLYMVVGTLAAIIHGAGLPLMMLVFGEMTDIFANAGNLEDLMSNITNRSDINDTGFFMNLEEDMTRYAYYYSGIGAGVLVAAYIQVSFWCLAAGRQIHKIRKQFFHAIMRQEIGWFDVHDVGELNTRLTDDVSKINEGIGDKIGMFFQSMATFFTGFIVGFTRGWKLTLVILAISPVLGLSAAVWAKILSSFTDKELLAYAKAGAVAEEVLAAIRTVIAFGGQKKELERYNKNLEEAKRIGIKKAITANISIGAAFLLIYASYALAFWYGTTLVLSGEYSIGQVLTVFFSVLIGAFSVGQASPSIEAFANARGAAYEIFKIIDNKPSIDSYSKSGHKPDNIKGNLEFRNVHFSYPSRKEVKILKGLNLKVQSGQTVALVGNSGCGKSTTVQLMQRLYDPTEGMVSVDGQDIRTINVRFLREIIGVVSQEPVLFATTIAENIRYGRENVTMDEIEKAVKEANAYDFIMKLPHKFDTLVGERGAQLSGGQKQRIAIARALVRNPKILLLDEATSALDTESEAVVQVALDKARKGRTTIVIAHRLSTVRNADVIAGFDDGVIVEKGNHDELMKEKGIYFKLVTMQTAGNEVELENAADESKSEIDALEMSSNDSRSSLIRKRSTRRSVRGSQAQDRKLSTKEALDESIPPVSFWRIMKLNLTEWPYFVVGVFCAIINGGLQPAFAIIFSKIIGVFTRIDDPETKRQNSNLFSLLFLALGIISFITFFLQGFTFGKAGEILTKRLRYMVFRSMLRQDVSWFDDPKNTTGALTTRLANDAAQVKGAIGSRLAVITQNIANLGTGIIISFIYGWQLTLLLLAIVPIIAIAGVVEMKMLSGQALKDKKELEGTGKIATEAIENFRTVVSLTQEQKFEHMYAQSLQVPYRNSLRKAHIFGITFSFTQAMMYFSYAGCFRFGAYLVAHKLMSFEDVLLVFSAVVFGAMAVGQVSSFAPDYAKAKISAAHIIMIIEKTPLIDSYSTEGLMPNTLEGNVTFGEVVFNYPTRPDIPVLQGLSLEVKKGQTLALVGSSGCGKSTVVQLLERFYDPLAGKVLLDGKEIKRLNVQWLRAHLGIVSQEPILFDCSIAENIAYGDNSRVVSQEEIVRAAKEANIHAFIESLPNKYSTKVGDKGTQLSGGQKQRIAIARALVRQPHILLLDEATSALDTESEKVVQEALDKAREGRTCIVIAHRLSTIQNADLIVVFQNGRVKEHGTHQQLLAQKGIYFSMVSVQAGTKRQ

Row | SMILES | Km at 10 min [1] [µM] | Vmax of rhodamine 123 efflux [2] [nmole/mg protein/10 min] | Km at 10 min [3] [µM] | Vmax of rhodamine 123 efflux [4] [nmole/mg protein/10 min] | non-specific first-order rate constant of rhodamine 123 efflux [5] [µL/mg protein/10 min] | non-specific transport as share of the total efflux [5] [%] | Km at 10 min [6] [µM] | IC50 [7] [µM] | Ki [7] [µM] | IC50 [8] [µM] | Ki [8] [µM] | IC50 [9] [µM] | Ki [9] [µM] | cell viability (MTT assay) [10] | therapeutic range [11] [µM]
1 | COC(=O)c1ccccc1-c1c2ccc(=N)cc-2oc2cc(N)ccc12 [Rhodamine 123] | 16.6 ± 3.01 | 7.34±0.63 | 14.8 ± 1.72 | 8.29±0.89 | 12.08±1.23 | 2.9 | 18.8 ± 2 |  |  |  |  |  |  |  | 
2 | CCC(=O)C(CC(C)N(C)C)(c1ccccc1)c1ccccc1 (stereo not drawn) [methadone] |  |  |  |  |  |  |  | 2.97 ± 0.09 | 3.92 ± 0.07 | 4.43 ± 1.1 | 4.53 ± 1.17 | 2.17 ± 0.1 | 2.77 ± 0.15 | did not affect | 1 to 3
